# No end group written: not given here.
# How the values were obtained:
# HLA-A*11:01 [1] = target: T1, HLA-A*11:01 (Homo sapiens, UniProt P04439, A114D/D185E/E176A/F33Y/L180Q/S129P/T187R); assay: fluorescence polarization competitive peptide-binding assay
# HLA-A*03:01 [2] = target: T2, HLA-A*03:01 (Homo sapiens, UniProt P04439); assay: as above
# HLA-A*03:01 [3] = target: T2, HLA-A*03:01; assay: p-HLA complex stability, scintillation proximity assay of β2-microglobulin dissociation; type: binding
# HLA-A*11:01 [4] = target: T1, HLA-A*11:01; assay: as above; type: binding
# HLA-A*02:01 [5] = target: T3, HLA-A*02:01 (Homo sapiens, UniProt P04439, D140Y/D185E/D98H/E176V/E277Q/G131W/G231S/I119V/I121R/I166T/I218V/L300P/L318F/N151K/N90K/P208A/P217A/Q86G/Q94H/R138H/R169H/T345S); type: binding
# HLA-B*07:02 [6] = target: T4, HLA-B*07:02 (Homo sapiens, UniProt P01889); assay: fluorescence polarization competitive peptide-binding assay; settings: Experimental Affinity IC50
# HLA-A*02:01 [7] = target: T3, HLA-A*02:01; assay: as above
# HLA-B*07:02 [8] = target: T4, HLA-B*07:02; type: binding
sequence,measurement,setting,value
ALLAVGATK [gp17-25],IC50,HLA-A*11:01 [1],225 nM
same,IC50,HLA-A*03:01 [2]; Experimental Affinity IC50,962 nM
ALNTITNLK,Experimental Stability (t1/2) Mean,HLA-A*03:01 [3],10.6 h
same,"Half_life, Setp #1",HLA-A*03:01 [3],11.4 h
same,"Half_life, Setp #2",HLA-A*03:01 [3],9.7 h
same,"k, Setp #1",HLA-A*03:01 [3],0.061
same,"k, Setp #2",HLA-A*03:01 [3],0.0711
ASLPTTIAK,Experimental Stability (t1/2) Mean,HLA-A*11:01 [4],22.5 h
same,"Half_life, Setp #1",HLA-A*11:01 [4],23.8 h
same,"Half_life, Setp #2",HLA-A*11:01 [4],21.1 h
same,"k, Setp #1",HLA-A*11:01 [4],0.0291
same,"k, Setp #2",HLA-A*11:01 [4],0.0328
FLIDLAFLI,Experimental Stability (t1/2) Mean,HLA-A*02:01 [5],10.1 h
same,"Half_life, Setp #1",HLA-A*02:01 [5],11 h
same,"Half_life, Setp #2",HLA-A*02:01 [5],9.2 h
same,"k, Setp #1",HLA-A*02:01 [5],0.063
same,"k, Setp #2",HLA-A*02:01 [5],0.0751
GAGGVGKSAL [Peptide 10-19],IC50,HLA-B*07:02 [6],76900 nM
GRAFVTIGK,IC50,HLA-B*07:02 [6],371 nM
"KITDFGIAK [HLA-A*11:01 control, Serine/threonine-protein kinase PknA, Mycobacterium tuberculosis, IEDB 109407]",Experimental Stability (t1/2) Mean,HLA-A*11:01 [4],15.6 h
same,"Half_life, Setp #1",HLA-A*11:01 [4],16.7 h
same,"Half_life, Setp #2",HLA-A*11:01 [4],14.6 h
same,"k, Setp #1",HLA-A*11:01 [4],0.0415
same,"k, Setp #2",HLA-A*11:01 [4],0.0476
KLAQRRVFH,Experimental Stability (t1/2) Mean,HLA-A*03:01 [3],3.5 h
same,"Half_life, Setp #1",HLA-A*03:01 [3],3.5 h
same,"Half_life, Setp #2",HLA-A*03:01 [3],3.6 h
same,"k, Setp #1",HLA-A*03:01 [3],0.2008
same,"k, Setp #2",HLA-A*03:01 [3],0.1902
KLVVVGAGGV [Peptide 5-14],IC50,HLA-A*02:01 [7],10900 nM
KLVVVGARGV [Peptide 5-14R],IC50,HLA-A*02:01 [7],20700 nM
"RLARAIIEL [HLA-A*02:01 control, Genome polyprotein, West Nile virus, IEDB 54476]",Experimental Stability (t1/2) Mean,HLA-A*02:01 [5],3 h
same,"Half_life, Setp #1",HLA-A*02:01 [5],3.3 h
same,"Half_life, Setp #2",HLA-A*02:01 [5],2.8 h
same,"k, Setp #1",HLA-A*02:01 [5],0.2104
same,"k, Setp #2",HLA-A*02:01 [5],0.2479
RPIDDRFGL,Experimental Stability (t1/2) Mean,HLA-B*07:02 [8],3.2 h
same,"Half_life, Setp #1",HLA-B*07:02 [8],4 h
same,"Half_life, Setp #2",HLA-B*07:02 [8],2.5 h
same,"k, Setp #1",HLA-B*07:02 [8],0.174
same,"k, Setp #2",HLA-B*07:02 [8],0.2746
RPIDDRFGLAL,Experimental Stability (t1/2) Mean,HLA-B*07:02 [8],1.1 h
same,"Half_life, Setp #1",HLA-B*07:02 [8],1.2 h
same,"Half_life, Setp #2",HLA-B*07:02 [8],1.1 h
same,"k, Setp #1",HLA-B*07:02 [8],0.5749
same,"k, Setp #2",HLA-B*07:02 [8],0.6051
RVKLSALTLK,Experimental Stability (t1/2) Mean,HLA-A*03:01 [3],12.3 h
same,"Half_life, Setp #1",HLA-A*03:01 [3],11.6 h
same,"Half_life, Setp #2",HLA-A*03:01 [3],13.1 h
same,"k, Setp #1",HLA-A*03:01 [3],0.0597
same,"k, Setp #2",HLA-A*03:01 [3],0.053
SPRERLVLTL,Experimental Stability (t1/2) Mean,HLA-B*07:02 [8],1 h
same,"Half_life, Setp #1",HLA-B*07:02 [8],1.1 h
same,"Half_life, Setp #2",HLA-B*07:02 [8],0.9 h
same,"k, Setp #1",HLA-B*07:02 [8],0.6505
same,"k, Setp #2",HLA-B*07:02 [8],0.7477
"TVNPIVTEK [HLA-A*11:01 control, Genome polyprotein, Dengue virus, IEDB 67094]",Experimental Stability (t1/2) Mean,HLA-A*11:01 [4],11.4 h
same,"Half_life, Setp #1",HLA-A*11:01 [4],11.8 h
same,"Half_life, Setp #2",HLA-A*11:01 [4],11 h
same,"k, Setp #1",HLA-A*11:01 [4],0.0587
same,"k, Setp #2",HLA-A*11:01 [4],0.0631
VLWDIPTPK,Experimental Stability (t1/2) Mean,HLA-A*11:01 [4],8 h
same,"Half_life, Setp #1",HLA-A*11:01 [4],8.4 h
same,"Half_life, Setp #2",HLA-A*11:01 [4],7.5 h
same,"k, Setp #1",HLA-A*11:01 [4],0.0825
same,"k, Setp #2",HLA-A*11:01 [4],0.093
same,Experimental Stability (t1/2) Mean,HLA-A*03:01 [3],4.7 h
same,"Half_life, Setp #1",HLA-A*03:01 [3],4.5 h
same,"Half_life, Setp #2",HLA-A*03:01 [3],4.9 h
same,"k, Setp #1",HLA-A*03:01 [3],0.1534
same,"k, Setp #2",HLA-A*03:01 [3],0.1427
VVGARGVGK [Peptide 8-16R],IC50,HLA-A*11:01 [1],634 nM
same,IC50,HLA-A*03:01 [2]; Experimental Affinity IC50,5300 nM
VVVGARGVGK [Peptide 7-16R],IC50,HLA-A*11:01 [1],566 nM
same,IC50,HLA-A*03:01 [2]; Experimental Affinity IC50,3240 nM
same,IC50,HLA-A*03:01 [2]; Experimental Affinity log10[IC50],≤ 3.59 nM

# From paper PMC8285372, “Biochemical and functional characterization of mutant KRAS epitopes validates this oncoprotein for immunological targeting” (Nature Communications, 2021)
